Data from EP0241134B1, “Pharmaceutical mixture comprising nedocromil or a salt thereof in combination with a bronchodilator” (FISONS plc, priority 1986, dated 1987).

Test system: acetyl choline or histamine induced bronchospasm
Experiment: Duration of action: inhibition of acetyl choline or histamine induced bronchospasm by equiactive i.v. doses
Type: in vivo
Conditions: anaesthetised guinea-pigs
Source text: We prefer the B₂ selective bronchodilator to be long acting. By the term 'long acting' we mean that the compound has a longer duration of action as a relaxant of bronchial smooth muscle in pharmacological tests than does isoprenaline or orciprenaline. For duration of action studies, a comparison is made of the effect of equiactive i.v. doses as inhibitors of acetyl choline or histamine induced bronchospasm in anaesthetised guinea-pigs. The duration of action of isoprenaline in such a test is relatively short (control response back to normal in 10 to 25 minutes). In the case of a compound with a longer duration of action, the control response would only return to normal over a several-fold longer period of time.

`CC(C)NCC(O)c1ccc(O)c(O)c1` (stereo not shown) [isoprenaline] was tested, and the “duration of action (control response back to normal)” value was 10 to 25 min.
